Key:
male broiler chicks [1] = test: Daily plasma LH immediately following dietary administration of 0.2% SMZ, from one week of age; assay type: in vivo, chicken; settings: 0.2% SMZ diet from one week of age, FIG. 6
Text: FIG. 6 depicts a graph showing daily levels of LH immediately following dietary administration of 0.2% SMZ, beginning at one week of age (*=p<0.05).
(§1) Blood samples were taken starting at day of SMZ administration and weekly following initiation of the treatment.

broiler chicks [2] = settings: cited from earlier work
broiler chicks [3] = test: 0.2% SMZ in standard broiler ration, one to four weeks of age, continuous light versus LD 8:16; assay type: in vivo, chicken; settings: 1-4 weeks of age
Experimental: FIG. 9 depicts a bar graph showing testes weight following 0.2% SMZ (1-4 weeks of age) in chicks exposed to LD 24:0 or LD 8:16.
In a further study using broiler chicks, SMZ at 0.2% was added to a standard broiler ration and fed to chicks from one to four weeks of age. One group was raised under continuous light while a second group was exposed to a photoperiod of LD 8:16. […] Although food intake was not measured in this experiment, body weight was taken at the beginning and end of the study. […] Sulfamethazine has a stimulatory effect upon testes growth when chicks are exposed to a long photoperiod. One possible interpretation is that SMZ appears to facilitate or amplify the stimulatory effect of long-day light on gonadal development in male chicks.

male broiler chicks [4] = test: 0.2% SMZ in starter ration during genetic selection phase of broilerization, from one week of age; assay type: in vivo, chicken
Text: FIG. 4 depicts a bar graph showing the testes response resulting from the “genetic selection” phase of broilerization (see FIG. 1) plus 0.2% sulfamethazine (SMZ) added to a standard starter ration at one week of age.
FIGS. 5A and 5B depict graphs showing weekly levels of plasma luteinizing hormone (LH; 5A) and follicle stimulating hormone (FSH; 5B) in male broiler chicks fed a diet with 0.2% SMZ beginning at one week of age (*=p[…]0.05).
as §1

broiler breeders = test: 0.2% SMZ in grower diet during photoperiodic phase of broilerization (weeks 20-28, LD 14:10); assay type: in vivo, chicken; settings: p≦0.05
Text: FIGS. 7A and 7B depict bar graphs showing testis weight response (7A) and plasma LH (7B) resulting from the “photoperiodic” phase of broilerization plus 0.2% SMZ added to a grower diet from 20 to 28 weeks of age. Testes and blood were sampled at 28 weeks of age. Photoperiod=LD 14:10.
FIGS. 8A and 8B show plasma FSH (8A) and testosterone (8B) resulting from blood samples taken as described with respect to FIGS. 7A and 7B.

chicks = settings: ICV administration to chicks; cited from earlier work

Row | Compound | time until plasma LH was significantly elevated after consuming feed containing SMZ (male broiler chicks [1]) [h] | plasma gonadotropins (broiler chicks [2]; broiler chicks) | testes development (broiler chicks [2]; broiler chicks) | thyroid hormone (broiler chicks [2]; broiler chicks) | number of immuno-stained neuropeptide Y (NPY) neurons (broiler chicks [2]; broiler chicks, mediobasal hypothalamus and infundibular nucleus (IN)) | comb coloration (side effect) (broiler chicks [2]; chronic use of SMZ) | size of comb and testes (side effect) (broiler chicks [2]; chronic use of SMZ) | testes growth (broiler chicks [3]; continuous light (LD 24:0), p≦0.05, FIG. 9) | progonadal effects (testes weight) (broiler chicks [3]; short photoperiod LD 8:16, FIG. 9) | body weight, long-day versus short-day SMZ treated groups (broiler chicks [3]; weighed at beginning and end of study) | plasma luteinizing hormone (LH), weekly levels (male broiler chicks [4]; 0.2% SMZ diet from one week of age, weekly blood samples, FIG. 5A) | plasma follicle stimulating hormone (FSH), weekly levels (male broiler chicks [4]; 0.2% SMZ diet from one week of age, weekly blood samples, FIG. 5B) | rate of testes growth (male broiler chicks [4]; 0.2% SMZ in starter ration from one week of age, FIG. 4) | semen production (male broiler chicks [4]; 0.2% SMZ in starter ration, by nine weeks of age) | plasma LH (broiler breeders; 0.2% SMZ weeks 20-28, LD 14:10, blood at week 28, FIG. 7B) | plasma FSH (broiler breeders; 0.2% SMZ weeks 20-28, LD 14:10, blood at week 28, FIG. 8A) | plasma testosterone (broiler breeders; 0.2% SMZ weeks 20-28, LD 14:10, blood at week 28, FIG. 8B) | testis weight versus controls (broiler breeders; 0.2% SMZ weeks 20-28, LD 14:10, sampled at 28 weeks, FIG. 7A) | growth of the testes (chicks)
1 | Cc1cc(C)nc(NS(=O)(=O)c2ccc(N)cc2)n1 [SMZ, Sulfamethazine] | ≤ 48 | increases | significantly increases | transiently suppresses | increases | marked red coloration of the comb | increased size of both comb and testes | significantly elevated | markedly attenuated | No significant difference | significantly increased | significantly increased | significantly increased | produced viable semen | significantly elevated | significantly elevated | significantly elevated | significantly heavier than controls | –
2 | neuropeptide Y [NPY] | – | – | – | – | – | – | – | – | – | – | – | – | – | – | – | – | – | – | stimulates

— US6573254B1, “Method for the stimulation of sperm production and gonadal development in animals” (University of Maryland, priority 1998, dated 2003)
